Assay [1] has as its target T1, human GSK-3β (Homo sapiens (Human), UniProt P49841). The assay is described as follows: Activity on human GSK-3β, LANCE substrate phosphorylation assay. Type of assay: biochemical. To be noted: for IC50: compounds 1 to 15, LANCE assay, five concentrations 100 μM to 10 nM. As for the experimental part: Activity on human GSK-3β was assessed using the following methods (according to Meijer et al., Chem. Biol., 2003-10:1255-1266).
In a first screening assay, compounds were tested in duplicate at a concentration of 10 μM.
Human recombinant enzyme GSK-3β was incubated for 90 minutes at 22° C. in the presence of compounds or vehicle in a reaction buffer containing ATP plus 100 nM unphosphorylated specific substrate peptide (Ulight-[…] K-amide). Substrate phosphorylation was measured by LANCE technology (PerkinElmer, Conn., USA).
In a second assay, the same compounds were assayed at five concentrations ranging from 100 μM to 10 nM with ten-fold dilutions in duplicate.
(§1) The IC50 values (concentration causing a half maximal inhibition of control specific activity), reported in table 4, were determined by non-linear regression analysis of the inhibition curves generated with mean replicate values using Hill equation curve fitting.
In general terms: In TR-FRET formats the signal depends on donor and acceptor labels being close together.

In assay [2] the target is T1, human GSK-3β. Nature of the assay: GSK-3β LanthaScreen TR-FRET Eu Kinase binding and displacement assay. Particulars: compounds 16 to 41, LanthaScreen TR-FRET binding and displacement assay, five concentrations 100 μM to 10 nM. On the procedure: In a second assay, the same compounds were assayed at five concentrations ranging from 100 μM to 10 nM with ten-fold dilutions in duplicate. Compounds 1 to 15 were tested using the same first assay, compounds 16 to 41 were tested in another assay based on the binding and displacement of AlexaFluor® 647 labeled, ATP-competitive Kinase inhibitor scaffold using LanthaScreen™ TR-FRET technology Eu Kinase assay packet according to manufacturer's instruction (Life Technologies, Italy).
as §1

Structures can show the parent of a compound that is named as a salt.

T1 sequence (P49841 whole entry): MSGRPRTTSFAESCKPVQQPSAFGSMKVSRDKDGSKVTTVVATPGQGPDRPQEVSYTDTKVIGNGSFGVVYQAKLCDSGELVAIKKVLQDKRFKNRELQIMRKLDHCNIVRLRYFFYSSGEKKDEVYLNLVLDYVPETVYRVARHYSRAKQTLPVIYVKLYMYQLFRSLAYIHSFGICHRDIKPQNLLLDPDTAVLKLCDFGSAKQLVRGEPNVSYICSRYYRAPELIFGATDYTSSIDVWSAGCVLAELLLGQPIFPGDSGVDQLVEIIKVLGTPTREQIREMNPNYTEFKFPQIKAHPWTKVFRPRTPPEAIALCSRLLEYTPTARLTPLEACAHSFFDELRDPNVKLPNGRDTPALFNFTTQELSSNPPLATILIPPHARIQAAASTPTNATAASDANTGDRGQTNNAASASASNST

Broadly, the IC50 is the concentration needed to halve the response being measured. Read a low IC50 as inhibition by little substance. `COCCN1CCC(CNC(=O)c2n[nH]c3ccc(-c4ccccc4F)cc23)CC1` [Compound 6, 5-(2-fluorophenyl)-N-{[1-(2-methoxyethyl)piperidin-4-yl]methyl}-1H-indazole-3-carboxamide]: the IC50 in assay [1] turned out to be 0.07 µM.

In assay [2], `O=C(O)CN1CCC(CNC(=O)c2n[nH]c3ccc(-c4cccc(F)c4)cc23)CC1` [Compound 28, {4-[({[5-(3-fluorophenyl)-1H-indazol-3-yl]carbonyl}amino)methyl]piperidin-1-yl} acetic acid hydrate] yielded an IC50 of 0.11 µM. This lies in the sub-micromolar range.

In the case of `COCCN1CCC(CNC(=O)c2n[nH]c3ccc(-c4cnccc4OC)cc23)CC1` [Compound 5, N-{[1-(2-methoxyethyl)piperidin-4-yl]methyl}-5-(4-methoxypyridin-3-yl)-1H-indazole-3-carboxamide], in assay [1], the IC50 worked out at 0.05 µM. Regarding `O=C(NCC1CCNCC1)c1n[nH]c2ccc(Br)cc12` [Compound 25b, 5-Bromo-N-(piperidin-4-ylmethyl)-1H-indazole-3-carbox-amide hydrochloride], the IC50 in assay [2] was determined as 0.53 µM. This lies in the sub-micromolar range. As to `Cc1noc(C)c1-c1ccc2[nH]nc(C(=O)NCC3CCN(CC(=O)O)CC3)c2c1` [Compound 26, {4-[({[5-(3,5-Dimethylisoxazol-4-yl)-1H-indazol-3-yl]carbonyl}amino)methyl]piperidin-1-yl}acetic acid hydrate], the IC50 in assay [2] came to 0.91 µM.

In assay [1], `COCCN1CCC(CNC(=O)c2n[nH]c3ccc(-c4cccnc4OC)cc23)CC1` [Compound 14, N-{[1-(2-methoxyethyl)piperidin-4-yl]methyl}-5-(2-methoxypyridin-3-yl)-1H-indazole-3-carboxamide] registered a half-inhibitory concentration (IC50) of 1.4 µM.

`COc1ccc2[nH]nc(C(=O)NCC3CCN(CCCNC(=O)c4ccccc4)CC3)c2c1` [Compound 36, 5-methoxy-N-[(1-{3-[(phenylcarbonyl)amino]propyl}piperidin-4-yl)methyl]-1H-indazole-3-carboxamide]: the IC50 in assay [2] was 3.42 µM. For `COCCN1CCC(CNC(=O)c2n[nH]c3ccc(-c4ccc(OC)nc4)cc23)CC1` [Compound 15, N-{[1-(2-methoxyethyl)piperidin-4-yl]methyl}-5-(6-methoxypyridin-3-yl)-1H-indazole-3-carboxamide], the 50% inhibitory concentration (IC50) in assay [1] is 0.05 µM. Same read-out and setting: as for `COCCN1CCC(CNC(=O)c2n[nH]c3ccc(-c4ccc(C)nc4)cc23)CC1` [Compound 7, N-{[1-(2-methoxyethyl)piperidin-4-yl]methyl}-5-(6-methylpyridin-3-yl)-1H-indazole-3-carboxamide], the figure is 0.06 µM. `O=C(O)CN1CCC(CNC(=O)c2n[nH]c3ccc(C4=CCOCC4)cc23)CC1` [Compound 33, {4-[({[5-(3,6-dihydro-2H-pyran-4-yl)-1H-indazol-3-yl]carbonyl}amino)methyl]piperidin-1-yl}acetic acid] had a concentration for half-maximal inhibition (IC50) in assay [2] of 1.04 µM.

As for `COc1ccc2[nH]nc(C(=O)NCC3CCN(CCCC(=O)O)CC3)c2c1` [Compound 24, 4-[4-({[(5-methoxy-1H-indazol-3-yl)carbonyl]amino}methyl)piperidin-1-yl] butanoic acid], the IC50 in assay [2] is 1.03 µM. For `O=C(O)CN1CCC(CNC(=O)c2n[nH]c3ccc(-c4cncnc4)cc23)CC1` [Compound 25, {4-[({[5-(Pyrimidin-5-yl)-1H-indazol-3-yl]carbonyl}amino)methyl]piperidin-1-yl}acetic acid hydrate], the IC50 in assay [2] is 0.22 µM.

On to `O=C(O)CN1CCC(CNC(=O)c2n[nH]c3ccc(C4CCCCC4)cc23)CC1` [Compound 34, [4-({[(5-cyclohexyl-1H-indazol-3-yl)carbonyl]amino}methyl)piperidin-1-yl] acetic acid], for which, in assay [2], the half-maximal inhibitory concentration (IC50) was 1.07 µM. Regarding `COCCN1CCC(CNC(=O)c2n[nH]c3ccc(-c4cncc(OC)c4)cc23)CC1` [Compound 10, N-{[1-(2-methoxyethyl)piperidin-4-yl]methyl}-5-(5-methoxypyridin-3-yl)-1H-indazole-3-carboxamide], the IC50 in assay [1] amounted to 0.03 µM. Regarding `COCCN1CCC(CNC(=O)c2n[nH]c3ccc(-c4ccc(O)cc4)cc23)CC1` [Compound 11, 5-(4-hydroxyphenyl)-N-{[1-(2-methoxyethyl)piperidin-4-yl]methyl}-1H-indazole-3-carboxamide], the concentration for half-maximal inhibition (IC50) in assay [1] amounted to 0.89 µM. `C/C=C/C(=O)NCCCN1CCC(CNC(=O)c2n[nH]c3ccc(OC)cc23)CC1` [Compound 38, N-[(1-{3-[(2E)-but-2-enoylamino]propyl}piperidin-4-yl)methyl]-5-methoxy-1H-indazole-3-carboxamide]: in assay [2], the IC50 was 0.78 µM.

As to `CCOc1cc(F)c(F)cc1-c1ccc2[nH]nc(C(=O)NCC3CCN(CCOC)CC3)c2c1` [Compound 18, 5-(2-ethoxy-4,5-difluorophenyl)-N-{[1-(2-methoxyethyl)piperidin-4-yl]methyl}-1H-indazole-3-carboxamide], the IC50 in assay [2] came to 1.06 µM. The IC50 values of the last two molecules are within 1.5-fold of each other. In assay [1], `COCCN1CCC(CNC(=O)c2n[nH]c3ccc(-c4ccc(C)cc4)cc23)CC1` [Compound 13, N-{[1-(2-methoxyethyl)piperidin-4-yl]methyl}-5-(4-methylphenyl)-1H-indazole-3-carboxamide] yielded a half-maximal inhibitory concentration (IC50) of 0.56 µM. This counts as sub-micromolar.

In the case of `COc1cncc(-c2ccc3[nH]nc(C(=O)NCC4CCN(CC(=O)O)CC4)c3c2)c1` [Compound 30, {4-[({[5-(5-methoxypyridin-3-yl)-1H-indazol-3-yl]carbonyl}amino)methyl]piperidin-1-yl}acetic acid], in assay [2], the IC50 amounted to 0.02 µM. That is a double-digit nanomolar value. By inhibition is commonly meant the change of the read-out against control, counted positive when it falls. Low values mean little suppression, high ones strong suppression. Take `O=C(O)CN1CCC(CNC(=O)c2n[nH]c3cc(O)c(Br)cc23)CC1` [Compound 41, [4-({[(5-bromo-6-hydroxy-1H-indazol-3-yl)carbonyl]amino}methyl)piperidin-1-yl] acetic acid]: in assay [1] (10 μM, in duplicate, first screening assay), the inhibition at 10 µM worked out at 71%.

`O=C(O)CN1CCC(CNC(=O)c2n[nH]c3ccc(-c4cccc(Cl)c4Cl)cc23)CC1` [Compound 27, {4-[({[5-(2,3-dichlorophenyl)-1H-indazol-3-yl]carbonyl}amino)methyl]piperidin-1-yl}acetic acid hydrate] returned an IC50 in assay [2] of 0.1 µM.

As to `CCCC(=O)NCCCN1CCC(CNC(=O)c2n[nH]c3ccc(OC)cc23)CC1` [Compound 37, N-({1-[3-(butanoylamino)propyl]piperidin-4-yl}methyl)-5-methoxy-1H-indazole-3-carboxamide], in assay [2], the half-maximal inhibitory concentration (IC50) is 0.97 µM. As to `COCCN1CCC(CNC(=O)c2n[nH]c3ccc(-c4ccc(OC)cc4)cc23)CC1` [Compound 12, N-{[1-(2-methoxyethyl)piperidin-4-yl]methyl}-5-(4-methoxyphenyl)-1H-indazole-3-carboxamide], in assay [1], the concentration for half-maximal inhibition (IC50) amounted to 0.56 µM. That is a sub-micromolar value. For `CC#CC(=O)NCCCN1CCC(CNC(=O)c2n[nH]c3ccc(OC)cc23)CC1` [Compound 40, N-({1-[3-(but-2-ynoylamino)propyl]piperidin-4-yl}methyl)-5-methoxy-1H-indazole-3-carboxamide], the IC50 in assay [2] is 0.88 µM.

In assay [1], `COCCN1CCC(CNC(=O)c2n[nH]c3ccc(-c4ccccc4)cc23)CC1` [Compound 9, N-{[1-(2-methoxyethyl)pipendin-4-yl]methyl}-5-phenyl-1H-indazole-3-carboxamide] came in with an IC50 of 0.2 µM. This lies in the sub-micromolar range. With `CCC(=O)NCCCN1CCC(CNC(=O)c2n[nH]c3ccc(OC)cc23)CC1` [Compound 39, 5-methoxy-N-({1-[3-(propanoylamino)propyl]piperidin-4-yl}methyl)-1H-indazole-3-carboxamide], the IC50 in assay [2] was 0.95 µM.

Regarding `COCCN1CCC(CNC(=O)c2n[nH]c3ccc(-c4cccnc4)cc23)CC1` [Compound 4, N-{[1-(2-methoxyethyl)piperidin-4-yl]methyl}-5-(pyridin-3-yl)-1H-indazole-3-carboxamide], the IC50 in assay [1] was found to be 0.03 µM. This counts as double-digit nanomolar. With `CC(C)c1ccc2[nH]nc(C(=O)NCC3CCN(CC(=O)O)CC3)c2c1` [Compound 32, {4-[({[5-(propan-2-yl)-1H-indazol-3-yl]carbonyl}amino)methyl]piperidin-1-yl} acetic acid], the half-maximal inhibitory concentration (IC50) in assay [2] was 3.91 µM.

Turning to `CCCCCc1ccc2[nH]nc(C(=O)NCC3CCN(CC(=O)O)CC3)c2c1` [Compound 35, [4-({[(5-pentyl-1H-indazol-3-yl)carbonyl]amino}methyl)piperidin-1-yl] acetic acid], the IC50 in assay [2] stood at 2.04 µM. This IC50 lies about 1.9-fold lower than the previous one.

In the case of `COCCN1CCC(CNC(=O)c2n[nH]c3ccc(-c4ccccc4C)cc23)CC1` [Compound 16, N-{[1-(2-methoxyethyl)piperidin-4-yl]methyl}-5-(2-methylphenyl)-1H-indazole-3-carboxamide], the IC50 in assay [2] worked out at 0.58 µM.

The record behind these values is patent publication US9611249B2, “1H-indazole-3-carboxamide compounds as glycogen synthase kinase 3 beta inhibitors” (AZIENDE CHIMICHE RIUNITE ANGELINI FRANCESCO A.C.R.A.F. …, priority 2012, dated 2017).
